From PubChem BioAssay (NCI)
“And” between values parts separate entries of the source, which are not always exact repeats. Identical values can stand only once.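 Where inhibition never reached the appropriate level, the endpoint shown equals the highest concentration tested. Otherwise, values were interpolated linearly from a five-concentration, 48-hour dose response in 96-well plates. GI50 marks 50% less growth. TGI marks complete inhibition of growth.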

Experiments:
Experiment in all cases: inhibition of tumour cell growth, NCI panel, 48 h
KM12 colon = tested on: KM12 colon
TK-10 renal = tested on: TK-10 renal
K-562 leukemia = tested on: K-562 leukemia
HOP-92 NSCLC = tested on: HOP-92 NSCLC
RPMI-8226 leukemia = tested on: RPMI-8226 leukemia
NCI-H460 lung = tested on: NCI-H460 lung
DU-145 prostate = tested on: DU-145 prostate
UACC-257 melanoma = tested on: UACC-257 melanoma
CAKI-1 renal = tested on: CAKI-1 renal
MOLT-4 leukemia = tested on: MOLT-4 leukemia

SMILES | GI50 (KM12 colon) [µM] | TGI (KM12 colon) | GI50 (TK-10 renal) [µM] | TGI (TK-10 renal) | GI50 (K-562 leukemia) [µM] | TGI (K-562 leukemia) | GI50 (HOP-92 NSCLC) [µM] | TGI (HOP-92 NSCLC) | GI50 (RPMI-8226 leukemia) [µM] | TGI (RPMI-8226 leukemia) | GI50 (NCI-H460 lung) [µM] | TGI (NCI-H460 lung) | GI50 (DU-145 prostate) [µM] | TGI (DU-145 prostate) [µM] | GI50 (UACC-257 melanoma) [µM] | TGI (UACC-257 melanoma) | GI50 (CAKI-1 renal) [µM] | TGI (CAKI-1 renal) | TGI (MOLT-4 leukemia) | GI50 (MOLT-4 leukemia) [µM]
O=C(COc1ccc(/C=C2\CSc3ccccc3C2=O)cc1)Nc1nccs1 | 2.96 | 8.99 µM | 10.6 | 27.7 µM | 3.11 | > 100 µM | 0.026 | 9.46 µM | 2.13 | 6.7 µM | 15.9 | 31.9 µM | 4.2 | 14.3 | 12.6 | 25.1 µM | 12.8 | 25.3 µM | – | –
COc1ccc(OC)c2c(/C=C/c3ccc(N(C)C)cc3)ccnc12 | – | > 10 µM | – | > 10 µM | – | > 10 µM | – | > 10 µM | – | – | – | > 10 µM | – | > 10 | – | > 10 µM | – | > 10 µM | > 10 µM | –
O=C(Nc1ccc(-n2cc(-c3ccncc3)c(-c3ccc(Cl)c(O)c3)n2)cc1)Nc1ccc(Cl)c(C(F)(F)F)c1 | 1.47 | 3.01 µM | 3.64 | 15.1 µM | 1.89 | 7.37 µM | 1.57 | 4.21 µM | – | – | 1.7 | 3.4 µM | 1.84 | 3.85 | 1.51 | 3.4 µM | 3.01 | 15.3 µM | 6.77 µM | 1.14
COc1ccc(-c2ccc(/C=N/n3c(C)n[nH]c3=S)o2)c([N+](=O)[O-])c1 | > 100 | > 100 µM | 69.1 | > 100 µM | > 100 | > 100 µM | 12.4 | 45.4 µM | > 100 | > 100 µM | > 100 | > 100 µM | > 100 | > 100 | – | – | > 100 | > 100 µM | > 100 µM | > 100
Cc1cc(N/N=C/c2nc(-c3ccc(Br)cc3)oc2C)c2cc(Br)ccc2n1 | 2.25 | 5.71 µM | 1.97 | 3.93 µM | – | – | 2.5 | 14.4 µM | 2.37 | 6.39 µM | – | – | 3.81 | 13.9 | 6.9 | 21.9 µM | 8.15 | 20.6 µM | > 100 µM | 2.65
CN(CCCNC(=O)Cc1ccc2ccc3cccc4ccc1c2c34)CCCNc1cc(-c2ccc3ccccc3c2)nc2ccccc12 | 1.36 | 2.69 µM | 1.47 | 3.02 µM | – | – | 1.41 | 3.02 µM | 1.22 | 4.11 µM | 1.65 | 3.61 µM | 1.55 | 2.89 | 1.8 | 3.56 µM | 1.8 | 3.55 µM | 2.57 µM | 1.19
CC1(C)O/C(=C\c2ccccc2)C(=O)/C(=C/c2ccccc2)O1 | – | > 100 µM | – | > 100 µM | – | > 100 µM | – | > 100 µM | – | 54.6 µM | – | > 100 µM | – | – | – | 71.7 µM | – | > 100 µM | 43.9 µM | –
COc1cc2c(cc1O)C1Cc3ccc(OC)c(O)c3C(C2)N1C (stereo not drawn) | – | > 100 µM | – | > 100 µM | – | – | – | > 100 µM | – | > 100 µM | – | > 100 µM | – | > 100 | – | > 100 µM | – | > 100 µM | > 100 µM | –
O=c1[nH]cnc2cccc(Cl)c12 | – | > 100 µM | – | > 100 µM | – | > 100 µM | – | – | – | – | – | > 100 µM | – | > 100 | – | > 100 µM | – | > 100 µM | > 100 µM | –
C=CCNC(=O)N(CCC)CCCCC(NC(C)=O)C(=O)NCc1ccccc1 (stereo not drawn) | – | > 100 µM | – | > 100 µM | – | > 100 µM | – | > 100 µM | – | > 100 µM | – | > 100 µM | – | – | – | > 100 µM | – | > 100 µM | > 100 µM | –
O=C(Nc1cc(Cl)ccc1Cl)C(=O)C(c1cnc2ccccc2n1)[N+](=O)[O-] (stereo not drawn) | – | > 100 µM | – | > 100 µM | – | > 100 µM | – | > 100 µM | – | > 100 µM | – | > 100 µM | – | – | – | > 100 µM | – | > 100 µM | > 100 µM | –
CC(=O)/C=C/c1ccc(C#Cc2ccccc2)s1 | 6.1 | 36.7 µM | 16.8 | 32.9 µM | 19.8 | 56.4 µM | – | – | 20.7 | 38 µM | 16.2 | 33.3 µM | 10.8 | 24 | 19.1 | 34.3 µM | 19.3 | 36.2 µM | – | –
Cc1ccc(C2(O)CC(c3ccc([N+](=O)[O-])o3)=NN2C(=O)COc2ccc(Cl)cc2)cc1 (stereo not drawn) | – | 31.4 µM | – | 38.4 µM | – | > 100 µM | – | 24.3 µM | – | > 21.2 µM | – | 20.7 µM | – | – | – | 17 µM | – | 67.5 µM | > 100 µM | –
N#C/C(=C/N1CCN(C(=O)c2ccco2)C1=S)C(=O)c1ccccc1 | 6.49 | > 100 µM | 10.5 | 28.8 µM | 5.51 | > 100 µM | 26.9 | > 100 µM | 5.56 | > 100 µM | 9.52 | > 100 µM | 5.01 | > 100 | – | – | 12.5 | 44.4 µM | > 100 µM | 43.7
COCCOc1cnc2ccn([C@H](C)c3nnc4c(F)cc(-c5cnn(C)c5)cn34)c(=O)c2c1 | 24.4 | > 100 µM | > 100 | > 100 µM | > 100 | > 100 µM | 54.9 | > 100 µM | > 100 | > 100 µM | > 100 | > 100 µM | > 100 | > 100 | > 100 | > 100 µM | – | – | > 100 µM | > 100
C=C1C(=O)O[C@H]2[C@H]1CC/C(COC(=O)c1ccc(Cl)nc1)=C\CC[C@@]1(C)O[C@@H]21 | 3.96 | 16.7 µM | 2.86 | 6.77 µM | 2.19 | 12.2 µM | 2.18 | 4.84 µM | 1.58 | 4.87 µM | 5.19 | 21.4 µM | 1.75 | 4.01 | 1.83 | 4.17 µM | – | – | 7.2 µM | 2.57
O=[N+]([O-])c1ccc2c(c1)C(c1ccccc1Cl)=Nc1cn[nH]c1N2 | 12.1 | > 25 µM | 15.5 | > 25 µM | 19 | > 25 µM | – | – | > 24.2 | > 25 µM | 16.1 | > 25 µM | 20.4 | > 25 | > 25 | > 25 µM | 12.7 | > 25 µM | > 25 µM | 10.5
COC(=O)/C(C=O)=C/Sc1ccccc1 | – | > 100 µM | – | > 100 µM | – | > 100 µM | – | > 100 µM | – | > 100 µM | – | > 100 µM | – | – | – | > 100 µM | – | 62 µM | > 100 µM | –
Cn1cc(C2=C(c3cn(CCCCCN)c4ccccc34)C(=O)NC2=O)c2ccccc21 | 17.8 | > 25 µM | 10.6 | > 25 µM | 9.14 | > 25 µM | – | – | 9.24 | > 25 µM | 9.73 | > 25 µM | 13.8 | > 25 | 23.1 | > 25 µM | 8.25 | > 25 µM | > 22.9 µM | 8.09
COc1cccc(-n2c3nc(=O)n(C)c(=O)c-3nc3ccccc32)c1 | – | > 100 µM | – | > 100 µM | – | > 100 µM | – | 72.5 µM | – | > 100 µM | – | 33.4 µM | – | – | – | 33.8 µM | – | > 100 µM | 40.6 µM | –
CC12CCCCC1(C)C2Sc1ccccc1 (stereo not drawn) | – | > 100 µM | – | > 100 µM | – | 19.9 µM | – | 97 µM | – | 40.3 µM | – | > 100 µM | – | – | – | > 100 µM | – | > 100 µM | 41.6 µM | –
COC(=O)CCC(=O)CC1CC(=O)C2CCCN12 (stereo not drawn) | – | > 100 µM | – | > 100 µM | – | > 100 µM | – | > 100 µM | – | > 100 µM | – | > 100 µM | – | – | – | > 100 µM | – | > 100 µM | > 100 µM | –
CC(C)(C=O)CC(C#N)/C(=N\NC(N)=O)C(=O)Nc1ccccc1C(N)=O (stereo not drawn) | – | > 100 µM | – | > 100 µM | – | > 100 µM | – | > 100 µM | – | > 100 µM | – | > 100 µM | – | – | – | > 100 µM | – | > 100 µM | > 100 µM | –
COc1ccc(C2c3cc(OC)c(OC)cc3C(Cc3ccc([N+](=O)[O-])cc3)C2c2ccc([N+](=O)[O-])cc2)cc1OC (stereo not drawn) | – | > 100 µM | – | > 100 µM | – | > 100 µM | – | > 100 µM | – | > 100 µM | – | > 100 µM | – | – | – | > 100 µM | – | > 100 µM | > 100 µM | –
C[C@@]12CCCc3coc(c31)C(=O)c1cc3c(cc12)C(=O)C=CC3=O | > 1 | > 1 µM and 41.8 µM | > 1 | > 1 µM and 35.8 µM | > 1 | > 1 µM and 78.2 µM | > 1 | > 1 µM and 14.6 µM | > 1 | > 1 µM and 35 µM | > 1 | > 1 µM and 41.3 µM | – | – | > 1 | > 1 µM and 29.9 µM | > 1 | > 1 µM and 28.5 µM | > 1 µM and 6.16 µM | > 1
